The record followed here is ChEMBL document CHEMBL3632585, “Probing the S2' Subsite of the Anthrax Toxin Lethal Factor Using Novel N-Alkylated Hydroxamates” (J Med Chem, 2015).

Some results are limits rather than exact numbers.

The target of assay [1] is T1, Lethal factor (Bacillus anthracis, UniProt P15917).
T1 sequence (P15917 whole entry): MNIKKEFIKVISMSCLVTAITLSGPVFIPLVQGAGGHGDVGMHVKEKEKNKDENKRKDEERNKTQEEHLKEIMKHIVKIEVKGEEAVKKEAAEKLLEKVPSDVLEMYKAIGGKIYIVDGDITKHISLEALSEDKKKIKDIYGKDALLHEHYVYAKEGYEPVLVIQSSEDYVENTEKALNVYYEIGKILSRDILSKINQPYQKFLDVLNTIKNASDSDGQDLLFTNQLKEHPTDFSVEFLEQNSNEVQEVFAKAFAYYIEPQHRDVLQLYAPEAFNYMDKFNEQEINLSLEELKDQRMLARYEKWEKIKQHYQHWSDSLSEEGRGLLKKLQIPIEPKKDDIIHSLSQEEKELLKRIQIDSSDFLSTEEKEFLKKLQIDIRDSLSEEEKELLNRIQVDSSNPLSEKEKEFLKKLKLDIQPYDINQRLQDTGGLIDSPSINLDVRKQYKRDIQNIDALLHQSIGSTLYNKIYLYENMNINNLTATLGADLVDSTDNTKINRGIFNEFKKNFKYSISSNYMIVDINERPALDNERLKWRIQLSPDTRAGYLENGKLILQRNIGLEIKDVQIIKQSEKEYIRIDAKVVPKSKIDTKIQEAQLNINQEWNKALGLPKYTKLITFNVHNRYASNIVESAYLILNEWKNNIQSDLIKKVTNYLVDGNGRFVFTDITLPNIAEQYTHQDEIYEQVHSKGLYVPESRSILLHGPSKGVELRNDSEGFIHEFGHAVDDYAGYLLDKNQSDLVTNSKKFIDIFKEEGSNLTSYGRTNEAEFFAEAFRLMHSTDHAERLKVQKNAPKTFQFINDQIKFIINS
The assay is described as follows: Inhibition of Bacillus anthracis Lethal factor after 10 mins by mobility shift protease assay using 8 uM FITC as substrate.

Assay [2] concerns the target T1, Lethal factor. The assay is described as follows: Inhibition of Bacillus anthracis Lethal factor after 5 mins by FRET assay.

The term IC50 denotes the concentration needed to halve the response being measured.

Turning to `Cc1cc(S(=O)(=O)N[C@H](C)C(=O)NO)ccc1F`, the IC50 on Lethal factor [1] stood at 0.5 µM; against Lethal factor [2], 1.6 µM.
Turning to `Cc1cc(S(=O)(=O)N(C)[C@H](C)C(=O)NO)ccc1F`, the values for the IC50 on Lethal factor [1] and against Lethal factor [2] were 9.6 µM and 37 µM, respectively.
With `Cc1cc(S(=O)(=O)N(Cc2cc(F)cc(F)c2)[C@H](C)C(=O)NO)ccc1F`, the concentration for half-maximal inhibition (IC50) on Lethal factor [1] came to 7 µM; at Lethal factor [2], 26 µM.
On to `Cc1cc(S(=O)(=O)N(Cc2ccc(F)cc2)[C@H](C)C(=O)NO)ccc1F`, for which the half-maximal inhibitory concentration (IC50) on Lethal factor [1] turned out to be 11 µM; against Lethal factor [2] it was 29 µM.
`Cc1cc(S(=O)(=O)N(Cc2ccccc2F)[C@H](C)C(=O)NO)ccc1F`: the IC50 on Lethal factor [1] is 9.5 µM; on Lethal factor [2], 33 µM.
Take `Cc1cc(S(=O)(=O)N(Cc2c(F)cccc2F)[C@H](C)C(=O)NO)ccc1F`: the IC50 turned out to be 13 µM at Lethal factor [1] and 42 µM on Lethal factor [2].
The corresponding values for `Cc1cc(S(=O)(=O)N(CCOCc2ccccc2)[C@H](C)C(=O)NO)ccc1F` are 14 µM and 57 µM.
The corresponding values for `Cc1cc(S(=O)(=O)N(Cc2ccc(CNC(=O)OC(C)(C)C)cc2)[C@H](C)C(=O)NO)ccc1F` are 3.4 µM and 15 µM.
Take `Cc1cc(S(=O)(=O)N(Cc2ccc(CCNC(=O)OC(C)(C)C)cc2)[C@H](C)C(=O)NO)ccc1F`: the IC50 on Lethal factor [1] was found to be 2.1 µM; at Lethal factor [2], 6.9 µM.
With `Cc1cc(S(=O)(=O)N(CCCCCCCC(=O)OC(C)(C)C)[C@H](C)C(=O)NO)ccc1F`, the 50% inhibitory concentration (IC50) on Lethal factor [1] was 3.2 µM; against Lethal factor [2], 8 µM.
The corresponding values for `Cc1cc(S(=O)(=O)N(C(C)C)[C@H](C)C(=O)NO)ccc1F` are more than 100 µM and more than 100 µM.
The corresponding values for `Cc1cc(S(=O)(=O)N(Cc2ccc(N)cc2)[C@H](C)C(=O)NO)ccc1F` are 6.4 µM and 29 µM.
For `Cc1cc(S(=O)(=O)N(Cc2cccc(CN)c2)[C@H](C)C(=O)NO)ccc1F`, in that order: 1.7 µM and 10 µM.
For `Cc1cc(S(=O)(=O)N(Cc2ccc(CCN)cc2)[C@H](C)C(=O)NO)ccc1F`, the results for the IC50 at Lethal factor [1] and against Lethal factor [2] were 1.2 µM and 8.9 µM, respectively.
The corresponding values for `Cc1cc(S(=O)(=O)N(CCCCCCN)[C@H](C)C(=O)NO)ccc1F` are 1.1 µM and 4.4 µM.
Take `Cc1cc(S(=O)(=O)N(CCCCCN)[C@H](C)C(=O)NO)ccc1F`: the IC50 on Lethal factor [1] came to 1.3 µM; at Lethal factor [2], 8.2 µM.
For `Cc1cc(S(=O)(=O)N(CCCCN)[C@H](C)C(=O)NO)ccc1F`, the figures for the IC50 on Lethal factor [1] and at Lethal factor [2] were 1.8 µM and 7.4 µM, respectively.
For `Cc1cc(S(=O)(=O)N(CCCN)[C@H](C)C(=O)NO)ccc1F`, in that order: 3.7 µM and 12 µM.
For `Cc1cc(S(=O)(=O)N(CCCCCCCC(=O)O)[C@H](C)C(=O)NO)ccc1F`, in that order: 47 µM and 91 µM.
The corresponding values for `CC(=O)NCc1ccc(CN([C@H](C)C(=O)NO)S(=O)(=O)c2ccc(F)c(C)c2)cc1` are 3.5 µM and 16 µM.
For the molecule `CC(=O)NCc1cccc(CN([C@H](C)C(=O)NO)S(=O)(=O)c2ccc(F)c(C)c2)c1`, the IC50 was found to be 4.7 µM on Lethal factor [1] and 15 µM against Lethal factor [2].
The corresponding values for `CC(=O)NCCc1ccc(CN([C@H](C)C(=O)NO)S(=O)(=O)c2ccc(F)c(C)c2)cc1` are 3.2 µM and 17 µM.
For `CC(=O)NCCCCCCN([C@H](C)C(=O)NO)S(=O)(=O)c1ccc(F)c(C)c1`, in that order: 3.9 µM and 14 µM.
For `CC(=O)NCCCCCN([C@H](C)C(=O)NO)S(=O)(=O)c1ccc(F)c(C)c1`, the 50% inhibitory concentration (IC50) was found to be 4.3 µM on Lethal factor [1] and 19 µM against Lethal factor [2].
For the molecule `CC(=O)NCCCN([C@H](C)C(=O)NO)S(=O)(=O)c1ccc(F)c(C)c1`, the IC50 turned out to be 30 µM at Lethal factor [1] and 117 µM at Lethal factor [2].
For the molecule `CNC(=O)CCCCCCCN([C@H](C)C(=O)NO)S(=O)(=O)c1ccc(F)c(C)c1`, the IC50 at Lethal factor [1] was 9.3 µM; against Lethal factor [2] it was 19 µM.
For `CC(=O)Nc1cccc(CN([C@H](C)C(=O)NO)S(=O)(=O)c2ccc(F)c(C)c2)c1`, in that order: 4.8 µM and 21 µM.
The corresponding values for `Cc1cc(S(=O)(=O)N(Cc2ccc(CN)cc2)[C@H](C)C(=O)NO)ccc1F` are 1.3 µM and 5.6 µM.
